Data: the NIST ThermoML archive (doi:10.1016/j.jct.2016.10.031)
Where “and” joins values, the source holds several entries; their conditions need not be identical. Equal entries are not always repeated. Numbers after ± are expanded uncertainties.

Experiment: molar heat capacity at constant pressure
Details: 101.33 kPa, Small (less than 1 g) adiabatic calorimetry

CC(C)(C)c1ccc(Oc2ccc([N+](=O)[O-])cc2)cc1 [1-(tert-butyl)-4-(4-nitrophenoxy)benzene]
molar heat capacity at constant pressure
Details	Crystal	Liquid
262.65 K	316.28 ± 1.7 J/K/mol	–
263.87 K	317.61 ± 1.7 J/K/mol	–
265.09 K	319.11 ± 1.7 J/K/mol	–
266.31 K	320.52 ± 1.7 J/K/mol	–
267.53 K	322.93 ± 1.7 J/K/mol	–
268.76 K	323.52 ± 1.7 J/K/mol	–
269.98 K	324.6 ± 1.7 J/K/mol	–
270 K	324.6 ± 1.7 J/K/mol	–
271.2 K	326.68 ± 1.7 J/K/mol	–
272.42 K	327.92 ± 1.7 J/K/mol	–
273.64 K	329.92 ± 1.7 J/K/mol	–
274.86 K	331.08 ± 1.7 J/K/mol	–
276.09 K	332.58 ± 1.7 J/K/mol	–
277.31 K	333.99 ± 1.7 J/K/mol	–
278.53 K	335.41 ± 1.7 J/K/mol	–
279.76 K	336.82 ± 1.7 J/K/mol	–
280 K	336.82 ± 1.7 J/K/mol	–
280.98 K	337.98 ± 1.7 J/K/mol	–
282.21 K	338.98 ± 1.7 J/K/mol	–
283.43 K	341.06 ± 1.7 J/K/mol	–
284.66 K	342.56 ± 1.7 J/K/mol	–
285.89 K	344.14 ± 1.7 J/K/mol	–
287.11 K	345.22 ± 1.7 J/K/mol	–
288.31 K	347.05 ± 1.7 J/K/mol	–
289.54 K	348.38 ± 1.8 J/K/mol	–
290 K	349.21 ± 1.7 J/K/mol	–
290.77 K	349.96 ± 1.8 J/K/mol	–
291.99 K	351.2 ± 1.8 J/K/mol	–
293.22 K	353.2 ± 1.8 J/K/mol	–
294.45 K	354.45 ± 1.8 J/K/mol	–
295.68 K	355.94 ± 1.8 J/K/mol	–
296.91 K	357.69 ± 1.8 J/K/mol	–
298.15 K	359.02 ± 1.8 J/K/mol and 359.52 ± 1.9 J/K/mol	–
299.38 K	360.35 ± 1.8 J/K/mol	–
300 K	361.85 ± 1.9 J/K/mol	–
300.82 K	363.01 ± 1.8 J/K/mol	–
302.44 K	364.84 ± 1.9 J/K/mol	–
304.06 K	367.75 ± 1.9 J/K/mol	–
305.69 K	370.08 ± 1.9 J/K/mol	–
307.33 K	372.49 ± 1.9 J/K/mol	–
308.97 K	374.65 ± 1.9 J/K/mol	–
310 K	376.4 ± 1.9 J/K/mol	–
310.62 K	377.23 ± 1.9 J/K/mol	–
312.28 K	379.97 ± 1.9 J/K/mol	–
313.94 K	385.62 ± 2 J/K/mol	–
315.6 K	386.71 ± 2 J/K/mol	–
317.26 K	392.78 ± 2 J/K/mol	–
318.94 K	397.18 ± 2 J/K/mol	–
320 K	390.45 ± 1.9 J/K/mol	–
320.63 K	403.09 ± 2.1 J/K/mol	–
322.32 K	412.15 ± 2.1 J/K/mol	–
324.01 K	420.79 ± 2.2 J/K/mol	–
325.71 K	441.66 ± 2.3 J/K/mol	–
327.44 K	477.92 ± 2.6 J/K/mol	–
330 K	404.5 ± 2.1 J/K/mol	–
334.8 K	411.23 ± 2.1 J/K/mol	446.57 ± 2.2 J/K/mol
340 K	–	449.23 ± 2.2 J/K/mol
340.68 K	–	450.39 ± 2.3 J/K/mol
344.79 K	–	449.98 ± 2.3 J/K/mol
346.59 K	–	452.64 ± 2.3 J/K/mol
348.4 K	–	452.39 ± 2.3 J/K/mol
350 K	–	454.39 ± 2.2 J/K/mol
350.22 K	–	454.88 ± 2.3 J/K/mol
352.05 K	–	456.21 ± 2.3 J/K/mol
353.89 K	–	457.05 ± 2.3 J/K/mol
355.75 K	–	456.96 ± 2.3 J/K/mol
357.6 K	–	459.21 ± 2.3 J/K/mol
359.66 K	–	460.7 ± 2.3 J/K/mol
360 K	–	459.54 ± 2.2 J/K/mol
361.55 K	–	460.21 ± 2.3 J/K/mol
363.45 K	–	461.62 ± 2.3 J/K/mol
365.36 K	–	462.28 ± 2.3 J/K/mol
367.28 K	–	462.87 ± 2.3 J/K/mol
369.21 K	–	463.95 ± 2.3 J/K/mol
370 K	–	464.7 ± 2.2 J/K/mol
371.16 K	–	464.86 ± 2.3 J/K/mol
